Here are results for 53 molecules from KR20130112248A, “피라졸로피리미딘 유도체 화합물, 이를 포함하는 산화질소 생성 억제용 조성물 및 뇌신경 질환 예방 및 치료용 약학적 조성물” (한국과학기술연구원, priority 2012, dated 2013).

The test system of this assay is NO production in BV-2 cells [NO 생성; BV-2 세포]. Description: Nitric oxide (NO) quantification (nitrite, Griess reaction) in LPS-activated BV-2 cells. It counts as cell-based. The conditions noted are these: 20 μM, LPS 0.2 ㎍/mL, 24 h co-treatment, nitrite by Griess at 540 nm; for activity at 20 µM: Mus musculus, BV-2, 24 h.

Consider `CSc1nc(NCc2ccc(Cl)cc2)c2cnn(-c3ccccc3)c2n1` [화합물 15n, 1-페닐-4-(4-클로로벤질)아미노-6-(메틸티오)피라졸로[3,4-d]피리미딘], for which the activity at 20 µM amounted to 63 ± 6%.
The same measure, in the same setting: as for `CSc1nc(NCc2ccccc2C)c2cnn(-c3ccccc3)c2n1` [화합물 15o, 1-페닐-4-(2-메틸벤질)아미노-6-(메틸티오)피라졸로[3,4-d]피리미딘], the figure is 57 ± 1%; as for `CSc1nc(NCc2ccc(C)cc2)c2cnn(-c3ccccc3)c2n1` [화합물 15p, 1-페닐-4-(4-메틸벤질)아미노-6-(메틸티오)피라졸로[3,4-d]피리미딘], 71 ± 5%; as for `CSc1nc(NC2CCCCC2)c2cnn(-c3ccccc3)c2n1` [화합물 15q, 1-페닐-4-사이클로헥실아미노-6-(메틸티오)피라졸로[3,4-d]피리미딘], 54 ± 1%.
On the same count and under the same terms, the result for `CSc1nc(N[C@H](C)C2CCCCC2)c2cnn(-c3ccccc3)c2n1` [화합물 15r, (R)-1-페닐-4-(1-사이클로헥실에틸)아미노-6-(메틸티오)피라졸로[3,4-d]피리미딘] reads 41 ± 1%; that for `COc1nc(SC)nc2c1cnn2-c1ccccc1` [화합물 15s, 1-페닐-4-메톡시-6-(메틸티오)피라졸로[3,4-d]피리미딘], 93 ± 2%; that for `CCCCNc1nc(SC)nc2c1cnn2-c1ccccc1` [화합물 15t, 1-페닐-4-n-뷰틸아미노-6-(메틸티오)피라졸로[3,4-d]피리미딘], 48 ± 8%.
Same read-out and setting: the result for `CSc1nc(N2CCN(C)CC2)c2cnn(-c3ccccc3)c2n1` [화합물 15u, 1-페닐-4-(4-메틸)피페라지노-6-(메틸티오)피라졸로[3,4-d]피리미딘] reads 64%; that for `COc1ccccc1CNc1nc(SC)nc2c1cnn2-c1ccccc1` [화합물 15v, 1-페닐-4-(2-메톡시벤질)아미노-6-(메틸티오)피라졸로[3,4-d]피리미딘], 41 ± 2%; that for `CCN(CC)c1nc(SC)nc2c1cnn2-c1ccccc1` [화합물 15w, 1-페닐-4-다이에틸아미노-6-(메틸티오)피라졸로[3,4-d]피리미딘], 79 ± 3%.
Take `CSc1nc(Sc2ccc(C)cc2)c2cnn(-c3ccccc3)c2n1` [화합물 15y, 4-(p-톨릴티오)-6-(메틸티오)-1-페닐-1H-피라졸로[3,4-d]피리미딘]: the activity at 20 µM turned out to be 85 ± 2.3%.
Same read-out and setting: as for `CSc1nc(NC(c2ccccc2)c2ccc(Cl)cc2)c2cnn(-c3ccccc3)c2n1` (centres unmarked) [화합물 15z, N-((4-클로로페닐)(페닐)메틸)-6-(메틸티오)-1-페닐-1H-피라졸로[3,4-d]피리미딘-4-아민], the figure is 46 ± 0.6%; as for `CSc1nc(NC(C)C2CCCCC2)c2cnn(-c3ccccc3)c2n1` (centres unmarked) [화합물 15za, N-(1-사이클로헥실에틸)-6-(메틸티오)-1-페닐-1H-피라졸로[3,4-d]피리미딘-4-아민], 36 ± 0.7%; as for `CSc1nc(NC(C)c2ccc(C)cc2)c2cnn(-c3ccccc3)c2n1` (centres unmarked) [화합물 15zb, 6-(메틸티오)-1-페닐-N-(1-p-톨릴에틸)-1H-피라졸로[3,4-d]피리미딘-4-아민], 51 ± 0.1%.
Regarding `COc1ccc([C@H](C)Nc2nc(SC)nc3c2cnn3-c2ccccc2)cc1` [화합물 15zc, N-((S)-1-(4-메톡시페닐)에틸)-6-(메틸티오))-1-페닐-1H-피라졸로[3,4-d]피리미딘-4-아민], the activity at 20 µM is 42 ± 0.9%.
The same measure, in the same setting: the result for `CSc1nc(NCc2ccccc2)c2cnn(Cc3ccccc3)c2n1` [화합물 16a, 1-벤질-4-벤질아미노-6-(메틸티오)피라졸로[3,4-d]피리미딘] reads 35 ± 0.5%.
Still for that read-out and setting: the result for `CSc1nc(NCc2ccc(F)cc2)c2cnn(Cc3ccccc3)c2n1` [화합물 16c, 1-벤질-4-(4-플루오로벤질)아미노-6-(메틸티오)피라졸로[3,4-d]피리미딘] reads 32.3 ± 3%.
In the case of `CSc1nc(NCCc2ccccc2)c2cnn(Cc3ccccc3)c2n1` [화합물 16d, 1-벤질-4-(2-페닐에틸)아미노-6-(메틸티오)피라졸로[3,4-d]피리미딘], the activity at 20 µM was determined as 54 ± 1%.
Same read-out and setting: as for `CSc1nc(N[C@H](C)c2ccccc2)c2cnn(Cc3ccccc3)c2n1` [화합물 16e, (R)-1-벤질-4-(1-페닐에틸)아미노-6-(메틸티오)피라졸로[3,4-d]피리미딘], the figure is 36 ± 4%; as for `CSc1nc(NCc2ccccc2C)c2cnn(Cc3ccccc3)c2n1` [화합물 16f, 1-벤질-4-(2-메틸벤질)아미노-6-(메틸티오)피라졸로[3,4-d]피리미딘], 35 ± 6%; as for `COc1ccc(CNc2nc(SC)nc3c2cnn3Cc2ccccc2)cc1` [화합물 16g, 1-벤질-4-(4-메톡시벤질)아미노-6-(메틸티오)피라졸로[3,4-d]피리미딘], 37 ± 6%.
The same measure, in the same setting: the result for `C=CCNc1nc(SC)nc2c1cnn2Cc1ccccc1` [화합물 16h, 1-벤질-4-알릴아미노-6-(메틸티오)피라졸로[3,4-d]피리미딘] reads 66 ± 9%.
With `CSc1nc(N(CCO)CCO)c2cnn(Cc3ccccc3)c2n1` [화합물 16i, 1-벤질-4-비스(1-하이드록시에틸)아미노-6-(메틸티오)피라졸로[3,4-d]피리미딘], the activity at 20 µM came out at 79 ± 3%.
The same measure, in the same setting: as for `CSc1nc(NC(C)(C)CO)c2cnn(Cc3ccccc3)c2n1` [화합물 16j, 1-벤질-4-[(1-하이드록시-2,2-다이메틸)에틸]아미노-6-(메틸티오)피라졸로[3,4-d]피리미딘], the figure is 48 ± 8%.
For the molecule `CSc1nc(NC(C)c2ccccc2)c2cnn(Cc3ccccc3)c2n1` (centres unmarked) [화합물 16k, 1-벤질-6-(메틸티오)-N-(1-페닐에틸)-1H-피라졸로[3,4-d]피리미딘-4-아민], the “NO (% of LPS)” value (1440 min) was 31±0.5 % of LPS.
For the molecule `CCSc1nc(SC)nc2c1cnn2Cc1ccccc1` [화합물 16l, 1-벤질-4-(에틸티오)-6-(메틸티오)-1H-피라졸로[3,4-d]피리미딘], the activity at 20 µM was 48 ± 5.1%.
On the same count and under the same terms, as for `CCCCSc1nc(SC)nc2c1cnn2Cc1ccccc1` [화합물 16m, 1-벤질-4-(뷰틸티오)-6-(메틸티오)-1H-피라졸로[3,4-d]피리미딘], the figure is 58 ± 1.9%; as for `CSc1nc(SCC(C)C)c2cnn(Cc3ccccc3)c2n1` [화합물 16n, 1-벤질-4-(이소부틸티오)-6-(메틸티오)-1H-피라졸로[3,4-d]피리미딘], 56 ± 4.5%; as for `CSc1nc(SCCCCl)c2cnn(Cc3ccccc3)c2n1` [화합물 16o, 4-(3-클로로프로필티오)-1-벤질-6-(메틸티오)-1H-피라졸로[3,4-d]피리미딘], 43 ± 4.6%.
The same measure, in the same setting: as for `CSc1nc(Sc2ccc(C)cc2)c2cnn(Cc3ccccc3)c2n1` [화합물 16p, 4-(p-톨릴티오)-1-벤질-6-(메틸티오)-1H-피라졸로[3,4-d]피리미딘], the figure is 34 ± 1.7%; as for `COc1ccc(Sc2nc(SC)nc3c2cnn3Cc2ccccc2)cc1` [화합물 16q, 4-(4-메톡시페닐티오)-1-벤질-6-(메틸티오)-1H-피라졸로[3,4-d]피리미딘], 40 ± 1.8%.
Still for that read-out and setting: as for `CSc1nc(Sc2ccc(Cl)cc2)c2cnn(Cc3ccccc3)c2n1` [화합물 16r, 4-(4-클로로페닐티오)-1-벤질-6-(메틸티오)-1H-피라졸로[3,4-d]피리미딘], the figure is 20 ± 1.9%.
For the molecule `CSc1nc(SCc2ccccc2Cl)c2cnn(Cc3ccccc3)c2n1` [화합물 16s, 4-(2-클로로벤질티오)-1-벤질-6-(메틸티오)-1H-피라졸로[3,4-d]피리미딘], the activity at 20 µM was found to be 66 ± 2.6%.
The same measure, in the same setting: the result for `CSc1nc(Sc2c(Cl)cccc2Cl)c2cnn(Cc3ccccc3)c2n1` [화합물 16t, 4-(2,6-다이클로로페닐티오)-1-벤질-6-(메틸티오)-1H-피라졸로[3,4-d]피리미딘] reads 43 ± 1.2%.
On the same count and under the same terms, as for `CSc1nc(Sc2ccc(F)cc2)c2cnn(Cc3ccccc3)c2n1` [화합물 16u, 4-(4-플루오로페닐티오)-1-벤질-6-(메틸티오)-1H-피라졸로[3,4-d]피리미딘], the figure is 28 ± 1.8%; as for `CCCCCCCCSc1nc(SC)nc2c1cnn2Cc1ccccc1` [화합물 16v, 1-벤질-6-(메틸티오)-4-(옥틸티오)-1H-피라졸로[3,4-d]피리미딘], 95 ± 4%; as for `CSc1nc(NC(C)c2ccccc2)c2cnn(Cc3ccccc3)c2n1` (centres unmarked) [화합물 16x, 1-벤질-6-(메틸티오)-N-(1-페닐에틸)-1H-피라졸로[3,4-d]피리미딘-4-아민], 34 ± 1.4%.
The same measure, in the same setting: as for `CSc1nc(NC(c2ccccc2)c2ccc(Cl)cc2)c2cnn(Cc3ccccc3)c2n1` (centres unmarked) [화합물 16y, 1-벤질-N-((4-클로로페닐)(페닐)메틸)-6-(메틸티오)-1H-피라졸로[3,4-d]피리미딘-4-아민], the figure is 41 ± 0.9%; as for `CSc1nc(NC(C)C2CCCCC2)c2cnn(Cc3ccccc3)c2n1` (centres unmarked) [화합물 16z, 1-벤질-N-(1-사이클로헥실에틸)-6-(메틸티오)-1H-피라졸로[3,4-d]피리미딘-4-아민], 26 ± 2.4%; as for `CSc1nc(NC(C)c2ccc(C)cc2)c2cnn(Cc3ccccc3)c2n1` (centres unmarked) [화합물 16za, 1-벤질-6-(메틸티오)-N-(1-p-톨릴에틸)-1H-피라졸로[3,4-d]피리미딘-4-아민], 40 ± 1.3%.
Consider `COc1ccc([C@H](C)Nc2nc(SC)nc3c2cnn3Cc2ccccc2)cc1` [화합물 16zb, 1-벤질-N-((S)-1-(4-메톡시페닐)에틸)-6-(메틸티오)-1H-피라졸로[3,4-d]피리미딘-4-아민], for which the activity at 20 µM came to 49 ± 2.4%.
Consider `COc1ccccc1CNc1nc(SC)nc2c1cnn2Cc1ccccc1` [화합물 16zc, N-(2-메톡시벤질)-1-벤질-6-(메틸티오)-1H-피라졸로[3,4-d]피리미딘-4-아민], for which the activity at 20 µM is 50 ± 1.1%.
Take `CSc1nc(NCc2ccc(Cl)cc2)c2cnn(Cc3ccccc3)c2n1` [화합물 16zd, N-(4-클로로벤질)-1-벤질-6-(메틸티오)-1H-피라졸로[3,4-d]피리미딘-4-아민]: the activity at 20 µM amounted to 46 ± 1.9%.
Still for that read-out and setting: as for `CSc1nc(NCc2ccc(C)cc2)c2cnn(Cc3ccccc3)c2n1` [화합물 16ze, N-(4-메틸벤질)-1-벤질-6-(메틸티오)-1H-피라졸로[3,4-d]피리미딘-4-아민], the figure is 51 ± 3.4%.
Same read-out and setting: the result for `COc1cccc(CNc2nc(SC)nc3c2cnn3Cc2ccccc2)c1` [화합물 16zf, N-(3-메톡시벤질)-1-벤질-6-(메틸티오)-1H-피라졸로[3,4-d]피리미딘-4-아민] reads 49 ± 0.6%; that for `CCCCNc1nc(SC)nc2c1cnn2Cc1ccccc1` [화합물 16zg, 1-벤질-N-뷰틸-6-(메틸티오)-1H-피라졸로[3,4-d]피리미딘-4-아민], 55 ± 1.9%.
Same read-out and setting: as for `CSc1nc(NCc2ccccn2)c2cnn(Cc3ccccc3)c2n1` [화합물 16zh, 1-벤질-6-(메틸티오)-N-((피리딘-2-일)메틸)-1H-피라졸로[3,4-d]피리미딘-4-아민], the figure is 53 ± 7.2%.
With `CSc1nc(NCc2ccccc2Cl)c2cnn(Cc3ccccc3)c2n1` [화합물 16zi, N-(2-클로로벤질)-1-벤질-6-(메틸티오)-1H-피라졸로[3,4-d]피리미딘-4-아민], the activity at 20 µM came to 39 ± 3.1%.
Same read-out and setting: as for `CSc1nc(NCc2ccccc2)c2cnn(C(C)(C)C)c2n1` [화합물 17a, 1-t-뷰틸-4-벤질아미노-6-(메틸티오)피라졸로[3,4-d]피리미딘], the figure is 73 ± 3%; as for `CSc1nc(N[C@H](C)c2ccccc2)c2cnn(C(C)(C)C)c2n1` [화합물 17b, (R)-1-t-뷰틸-4-(1-페닐에틸)아미노-6-(메틸티오)피라졸로[3,4-d]피리미딘], 61 ± 1%; as for `CSc1nc(NCc2ccc(F)cc2)c2cnn(C(C)(C)C)c2n1` [화합물 17c, 1-t-뷰틸-4-(4-플루오로벤질)아미노-6-(메틸티오)피라졸로[3,4-d]피리미딘], 59 ± 2%.
On the same count and under the same terms, the result for `COc1ccc(CNc2nc(SC)nc3c2cnn3C(C)(C)C)cc1` [화합물 17e, 1-t-뷰틸-4-(4-메톡시벤질)아미노-6-(메틸티오)피라졸로[3,4-d]피리미딘] reads 21 ± 27%.
Same read-out and setting: the result for `C=CCNc1nc(SC)nc2c1cnn2C(C)(C)C` [화합물 17f, 1-t-뷰틸-4-알릴아미노-6-(메틸티오)피라졸로[3,4-d]피리미딘] reads 89 ± 8%.
